IC50, Ki and Max inhibition data for one compound are collected here from ChEMBL document CHEMBL1129561 (J Med Chem, 1996).

For test [1], the target named is T1, Glucocorticoid receptor (Homo sapiens, UniProt P04150).
T1 sequence (P04150 whole entry): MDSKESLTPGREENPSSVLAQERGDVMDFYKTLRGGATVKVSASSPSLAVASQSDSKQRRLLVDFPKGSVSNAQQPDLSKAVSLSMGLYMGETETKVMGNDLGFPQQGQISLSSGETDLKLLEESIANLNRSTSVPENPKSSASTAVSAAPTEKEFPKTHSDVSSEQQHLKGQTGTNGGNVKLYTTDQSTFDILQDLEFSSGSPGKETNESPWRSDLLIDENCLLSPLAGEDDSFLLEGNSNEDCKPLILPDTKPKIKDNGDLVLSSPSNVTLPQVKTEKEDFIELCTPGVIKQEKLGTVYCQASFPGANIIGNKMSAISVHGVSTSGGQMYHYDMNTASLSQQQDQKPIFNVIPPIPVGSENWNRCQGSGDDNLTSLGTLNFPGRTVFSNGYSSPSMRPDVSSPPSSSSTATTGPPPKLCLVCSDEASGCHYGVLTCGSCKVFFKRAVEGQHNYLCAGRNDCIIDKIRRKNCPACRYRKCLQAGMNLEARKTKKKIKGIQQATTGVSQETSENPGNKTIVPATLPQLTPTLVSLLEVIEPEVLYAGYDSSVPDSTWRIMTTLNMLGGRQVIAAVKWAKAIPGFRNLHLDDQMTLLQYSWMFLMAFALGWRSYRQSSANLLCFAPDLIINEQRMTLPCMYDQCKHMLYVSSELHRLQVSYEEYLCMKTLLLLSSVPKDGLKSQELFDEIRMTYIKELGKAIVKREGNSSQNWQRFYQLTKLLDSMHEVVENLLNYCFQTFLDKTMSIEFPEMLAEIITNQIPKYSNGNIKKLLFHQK
Description: Inhibitory activity against human glucocorticoid receptor (hGR)

The target in test [2] is T2, Progesterone receptor (Homo sapiens, UniProt P06401).
T2 sequence (P06401 whole entry): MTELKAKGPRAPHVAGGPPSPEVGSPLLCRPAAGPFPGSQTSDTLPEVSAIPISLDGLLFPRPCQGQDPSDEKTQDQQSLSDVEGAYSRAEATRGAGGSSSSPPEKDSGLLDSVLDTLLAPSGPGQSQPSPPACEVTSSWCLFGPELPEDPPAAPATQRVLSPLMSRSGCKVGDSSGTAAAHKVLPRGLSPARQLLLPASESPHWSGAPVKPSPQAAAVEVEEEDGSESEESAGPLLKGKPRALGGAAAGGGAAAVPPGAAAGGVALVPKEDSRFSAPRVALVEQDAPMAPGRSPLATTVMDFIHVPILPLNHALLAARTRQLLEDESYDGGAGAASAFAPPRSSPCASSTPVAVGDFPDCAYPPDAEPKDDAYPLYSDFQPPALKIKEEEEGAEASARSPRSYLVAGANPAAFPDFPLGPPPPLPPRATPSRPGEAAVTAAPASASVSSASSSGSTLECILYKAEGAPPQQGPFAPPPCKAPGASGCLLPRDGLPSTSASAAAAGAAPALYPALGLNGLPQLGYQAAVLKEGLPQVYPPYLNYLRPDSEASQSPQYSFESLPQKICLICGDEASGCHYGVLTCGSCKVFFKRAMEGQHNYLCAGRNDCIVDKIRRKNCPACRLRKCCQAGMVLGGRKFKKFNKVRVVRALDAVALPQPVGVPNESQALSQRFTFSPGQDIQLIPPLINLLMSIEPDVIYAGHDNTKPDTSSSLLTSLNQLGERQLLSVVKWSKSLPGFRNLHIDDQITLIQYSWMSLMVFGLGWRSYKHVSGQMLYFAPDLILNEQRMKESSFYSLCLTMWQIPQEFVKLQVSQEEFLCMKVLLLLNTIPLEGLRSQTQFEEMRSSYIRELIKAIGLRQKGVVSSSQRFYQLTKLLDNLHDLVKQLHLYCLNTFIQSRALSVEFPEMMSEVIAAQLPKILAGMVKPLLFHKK

Test [3] concerns the target T2, Progesterone receptor. This is another data set of the same source.
The target in test [4] is T3, Mineralocorticoid receptor (Homo sapiens, UniProt P08235).
T3 sequence (P08235 whole entry): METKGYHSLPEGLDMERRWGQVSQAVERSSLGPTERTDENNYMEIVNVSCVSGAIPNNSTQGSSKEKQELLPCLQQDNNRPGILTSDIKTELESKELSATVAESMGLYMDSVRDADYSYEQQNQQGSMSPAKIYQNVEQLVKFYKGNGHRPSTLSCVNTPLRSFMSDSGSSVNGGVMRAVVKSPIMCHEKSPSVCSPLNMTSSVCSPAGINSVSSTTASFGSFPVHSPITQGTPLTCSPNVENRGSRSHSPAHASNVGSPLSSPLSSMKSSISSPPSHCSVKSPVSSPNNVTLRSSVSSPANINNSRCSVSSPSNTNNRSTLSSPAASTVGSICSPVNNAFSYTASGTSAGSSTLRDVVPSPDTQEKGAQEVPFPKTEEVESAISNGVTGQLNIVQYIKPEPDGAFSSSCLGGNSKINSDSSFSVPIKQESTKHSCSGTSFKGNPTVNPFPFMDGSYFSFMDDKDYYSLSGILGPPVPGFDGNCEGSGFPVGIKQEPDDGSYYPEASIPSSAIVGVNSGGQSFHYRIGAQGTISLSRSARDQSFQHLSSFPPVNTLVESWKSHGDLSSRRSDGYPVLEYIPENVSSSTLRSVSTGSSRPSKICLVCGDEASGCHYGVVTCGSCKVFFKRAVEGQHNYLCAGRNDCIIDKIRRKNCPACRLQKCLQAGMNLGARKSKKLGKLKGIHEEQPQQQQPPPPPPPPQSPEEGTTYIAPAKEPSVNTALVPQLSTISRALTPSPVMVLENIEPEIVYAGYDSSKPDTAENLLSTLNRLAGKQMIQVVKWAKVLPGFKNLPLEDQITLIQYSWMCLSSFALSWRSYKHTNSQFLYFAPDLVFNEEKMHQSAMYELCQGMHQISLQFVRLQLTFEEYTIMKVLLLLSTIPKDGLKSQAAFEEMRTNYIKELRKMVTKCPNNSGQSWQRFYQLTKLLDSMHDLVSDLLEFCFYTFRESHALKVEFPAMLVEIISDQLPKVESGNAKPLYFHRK
Description: Inhibitory activity against human mineralocorticoid receptor (hMR)

The target in a further test is Estrogen receptor (Homo sapiens, UniProt Q92731+P03372).
The target in test [5] is T1, Glucocorticoid receptor. This is another data set of the same source.
Description: Binding affinity was determined for human glucocorticoid receptor(hGR).
Test [6] addresses T4, Progesterone receptor (Homo sapiens) (UniProt P06401).
T4 sequence (whole entry): T2 sequence (P06401 whole entry)
As to conditions: CV-1.

pIC50, pKi: −log10 of the molar value.

Description for Estrogen receptor: Binding affinity for human estrogen receptor

Turning to `C=C1C=C(C)CC(C)(C)C1Cc1ccc([N+](=O)[O-])cc1` (configuration not stated), the negative logarithm of the IC50 (pIC50) is under 5.00 on Glucocorticoid receptor [1], 5.98 against Progesterone receptor [3] and under 5.00 in test [4]. The pKi is 7.27 on Progesterone receptor [2] and 5.27 at Glucocorticoid receptor [5]. Besides, the inhibition constant (Ki) on Estrogen receptor was over 10 µM. This compound returned a Max inhibition in test [6] of 90%.

By pIC50 is commonly meant −log10 of the IC50, conventionally taken in molar units. A high value points to a small IC50. Broadly, the pKi is −log10 of the Ki, conventionally taken in molar units. Read a low pKi as a high Ki. Usually Ki stands for the equilibrium dissociation constant of an inhibitor or competing ligand from its target. A low value points to tighter binding.
